Results taken from ChEMBL document CHEMBL5724806, “Unraveling interindividual differences and functional consequences of gut microbial metabolism of immunosuppressants” (2024).

Key:
Format in all cases: ADME
[1] = The drug is tested on Bacteroides xylanisolvens strain: HM 722 for biotransformation under anaerobic condition. The drug concentrations were measured over 6 timepoints collected between 0 and 12 hours of incubation by liquid-chromatography-coupled mass spectrometry (LC–MS); set-up: dose 5 uM, timepoint 0, 1.5, 3, 6, 9, 12 hours; conditions: 5 µM
[2] = (§1) The drug is tested on Parabacteroides distasonis strain: DSM20701 for biotransformation under anaerobic condition. The drug concentrations were measured over 6 timepoints collected between 0 and 12 hours of incubation by liquid-chromatography-coupled mass spectrometry (LC–MS); set-up: dose 5 uM, timepoint 0, 1.5, 3, 6, 9, 12 hours; conditions: 5 µM
[3] = The drug is tested on Parabacteroides merdae strain: DSM19495 for biotransformation under anaerobic condition. The drug concentrations were measured over 6 timepoints collected between 0 and 12 hours of incubation by liquid-chromatography-coupled mass spectrometry (LC–MS); set-up: dose 5 uM, timepoint 0, 1.5, 3, 6, 9, 12 hours; conditions: 5 µM
[4] = The drug is tested on Clostridium bolteae strain: DSM15670 for biotransformation under anaerobic condition. The drug concentrations were measured over 6 timepoints collected between 0 and 12 hours of incubation by liquid-chromatography-coupled mass spectrometry (LC–MS); set-up: dose 5 uM, timepoint 0, 1.5, 3, 6, 9, 12 hours; conditions: enterocloster bolteae, 5 µM
[5] = The drug is tested on Clostridium ramosum strain: DSM1402 for biotransformation under anaerobic condition. The drug concentrations were measured over 6 timepoints collected between 0 and 12 hours of incubation by liquid-chromatography-coupled mass spectrometry (LC–MS); set-up: dose 5 uM, timepoint 0, 1.5, 3, 6, 9, 12 hours; conditions: thomasclavelia ramosa, 5 µM
[6] = The drug is tested on Dorea formicigenerans strain: DSM3992 for biotransformation under anaerobic condition. The drug concentrations were measured over 6 timepoints collected between 0 and 12 hours of incubation by liquid-chromatography-coupled mass spectrometry (LC–MS); set-up: dose 5 uM, timepoint 0, 1.5, 3, 6, 9, 12 hours; conditions: 5 µM
[7] = The drug is tested on Eubacterium hallii strain: DSM3353 for biotransformation under anaerobic condition. The drug concentrations were measured over 6 timepoints collected between 0 and 12 hours of incubation by liquid-chromatography-coupled mass spectrometry (LC–MS); set-up: dose 5 uM, timepoint 0, 1.5, 3, 6, 9, 12 hours; conditions: anaerobutyricum hallii, 5 µM
[8] = The drug is tested on Faecalibacterium prausnitzii strain: DSM17677 for biotransformation under anaerobic condition. The drug concentrations were measured over 6 timepoints collected between 0 and 12 hours of incubation by liquid-chromatography-coupled mass spectrometry (LC–MS); set-up: dose 5 uM, timepoint 0, 1.5, 3, 6, 9, 12 hours; conditions: faecalibacterium duncaniae, 5 µM
[9] = The drug is tested on Gemella haemolysans strain: DSM107751 for biotransformation under anaerobic condition. The drug concentrations were measured over 6 timepoints collected between 0 and 12 hours of incubation by liquid-chromatography-coupled mass spectrometry (LC–MS); set-up: dose 5 uM, timepoint 0, 1.5, 3, 6, 9, 12 hours; conditions: 5 µM
[10] = The drug is tested on Gemella morbillorum strain: DSM20572 for biotransformation under anaerobic condition. The drug concentrations were measured over 6 timepoints collected between 0 and 12 hours of incubation by liquid-chromatography-coupled mass spectrometry (LC–MS); set-up: dose 5 uM, timepoint 0, 1.5, 3, 6, 9, 12 hours; conditions: 5 µM
[11] = The drug is tested on Lactobacillus gasseri strain: DSM20243 for biotransformation under anaerobic condition. The drug concentrations were measured over 6 timepoints collected between 0 and 12 hours of incubation by liquid-chromatography-coupled mass spectrometry (LC–MS); set-up: dose 5 uM, timepoint 0, 1.5, 3, 6, 9, 12 hours; conditions: 5 µM
[12] = The drug is tested on Roseburia intestinalis strain: DSM14610 for biotransformation under anaerobic condition. The drug concentrations were measured over 6 timepoints collected between 0 and 12 hours of incubation by liquid-chromatography-coupled mass spectrometry (LC–MS); set-up: dose 5 uM, timepoint 0, 1.5, 3, 6, 9, 12 hours; conditions: 5 µM
[13] = The drug is tested on Ruminococcus gnavus strain: ATCC29149 for biotransformation under anaerobic condition. The drug concentrations were measured over 6 timepoints collected between 0 and 12 hours of incubation by liquid-chromatography-coupled mass spectrometry (LC–MS); set-up: dose 5 uM, timepoint 0, 1.5, 3, 6, 9, 12 hours; conditions: mediterraneibacter gnavus, 5 µM
[14] = The drug is tested on Streptococcus anginosus strain: DSM20563 for biotransformation under anaerobic condition. The drug concentrations were measured over 6 timepoints collected between 0 and 12 hours of incubation by liquid-chromatography-coupled mass spectrometry (LC–MS); set-up: dose 5 uM, timepoint 0, 1.5, 3, 6, 9, 12 hours; conditions: 5 µM
[15] = The drug is tested on Streptococcus mitis strain: DSM12643 for biotransformation under anaerobic condition. The drug concentrations were measured over 6 timepoints collected between 0 and 12 hours of incubation by liquid-chromatography-coupled mass spectrometry (LC–MS); set-up: dose 5 uM, timepoint 0, 1.5, 3, 6, 9, 12 hours; conditions: 5 µM
[16] = The drug is tested on Streptococcus sanguinis strain: DSM20567 for biotransformation under anaerobic condition. The drug concentrations were measured over 6 timepoints collected between 0 and 12 hours of incubation by liquid-chromatography-coupled mass spectrometry (LC–MS); set-up: dose 5 uM, timepoint 0, 1.5, 3, 6, 9, 12 hours; conditions: 5 µM
[17] = The drug is tested on Akkermansia muciniphila strain: DSM22959 for biotransformation under anaerobic condition. The drug concentrations were measured over 6 timepoints collected between 0 and 12 hours of incubation by liquid-chromatography-coupled mass spectrometry (LC–MS); set-up: dose 5 uM, timepoint 0, 1.5, 3, 6, 9, 12 hours; conditions: 5 µM
[18] = (§2) The drug is tested on Bifidobacterium longum strain: DSM20088 for biotransformation under microaerobic condition. The drug concentrations were measured over 6 timepoints collected between 0 and 12 hours of incubation by liquid-chromatography-coupled mass spectrometry (LC–MS); set-up: dose 5 uM, timepoint 0, 1.5, 3, 6, 9, 12 hours; conditions: 5 µM
[19] = The drug is tested on Gemella morbillorum strain: DSM20572 for biotransformation under microaerobic condition. The drug concentrations were measured over 6 timepoints collected between 0 and 12 hours of incubation by liquid-chromatography-coupled mass spectrometry (LC–MS); set-up: dose 5 uM, timepoint 0, 1.5, 3, 6, 9, 12 hours; conditions: 5 µM
[20] = as §1, with “the gut metagenome community of A-04 with ENA study accession number: PRJEB31790” for “Parabacteroides distasonis strain: DSM20701”, “7” for “6”; set-up: dose 5 uM, timepoint 0, 0.75, 1.5, 3, 6, 9, 12 hours; conditions: 5 µM
[21] = as §1, with “the gut metagenome community of A-06 with ENA study accession number: PRJEB31790” for “Parabacteroides distasonis strain: DSM20701”, “7” for “6”; set-up: dose 5 uM, timepoint 0, 0.75, 1.5, 3, 6, 9, 12 hours; conditions: 5 µM
[22] = as §1, with “the gut metagenome community of A-10 with ENA study accession number: PRJEB31790” for “Parabacteroides distasonis strain: DSM20701”, “7” for “6”; set-up: dose 5 uM, timepoint 0, 0.75, 1.5, 3, 6, 9, 12 hours; conditions: 5 µM
[23] = as §1, with “the gut metagenome community of P-02 with ENA study accession number: PRJEB31790” for “Parabacteroides distasonis strain: DSM20701”, “7” for “6”; set-up: dose 5 uM, timepoint 0, 0.75, 1.5, 3, 6, 9, 12 hours; conditions: 5 µM
[24] = as §1, with “the gut metagenome community of P-03 with ENA study accession number: PRJEB31790” for “Parabacteroides distasonis strain: DSM20701”, “7” for “6”; set-up: dose 5 uM, timepoint 0, 0.75, 1.5, 3, 6, 9, 12 hours; conditions: 5 µM
[25] = as §1, with “the gut metagenome community of T-02 with ENA study accession number: PRJEB31790” for “Parabacteroides distasonis strain: DSM20701”, “7” for “6”; set-up: dose 5 uM, timepoint 0, 0.75, 1.5, 3, 6, 9, 12 hours; conditions: 5 µM
[26] = as §2, with “the gut metagenome community of A-08 with ENA study accession number: PRJEB31790” for “Bifidobacterium longum strain: DSM20088”, “7” for “6”; set-up: dose 5 uM, timepoint 0, 0.75, 1.5, 3, 6, 9, 12 hours; conditions: 5 µM
[27] = as §2, with “the gut metagenome community of A-09 with ENA study accession number: PRJEB31790” for “Bifidobacterium longum strain: DSM20088”, “7” for “6”; set-up: dose 5 uM, timepoint 0, 0.75, 1.5, 3, 6, 9, 12 hours; conditions: 5 µM
[28] = as §2, with “the gut metagenome community of P-04 with ENA study accession number: PRJEB31790” for “Bifidobacterium longum strain: DSM20088”, “7” for “6”; set-up: dose 5 uM, timepoint 0, 0.75, 1.5, 3, 6, 9, 12 hours; conditions: 5 µM
[29] = as §2, with “the gut metagenome community of T-01 with ENA study accession number: PRJEB31790” for “Bifidobacterium longum strain: DSM20088”, “7” for “6”; set-up: dose 5 uM, timepoint 0, 0.75, 1.5, 3, 6, 9, 12 hours; conditions: 5 µM
[30] = as §2, with “the gut metagenome community of T-02 with ENA study accession number: PRJEB31790” for “Bifidobacterium longum strain: DSM20088”, “7” for “6”; set-up: dose 5 uM, timepoint 0, 0.75, 1.5, 3, 6, 9, 12 hours; conditions: 5 µM

With `C=CC[C@@H]1/C=C(\C)C[C@H](C)C[C@H](OC)[C@H]2O[C@@](O)(C(=O)C(=O)N3CCCC[C@H]3C(=O)O[C@H](/C(C)=C/[C@@H]3CC[C@@H](O)[C@H](OC)C3)[C@H](C)[C@@H](O)CC1=O)[C@H](C)C[C@@H]2OC.O` [TACROLIMUS] the “Bacterial Biotransformation” value [1] was “Compound NOT metabolized”, the “Bacterial Biotransformation” value [2] was “Compound NOT metabolized” and the “Bacterial Biotransformation” value [3] was “Compound NOT metabolized”. The “Bacterial Biotransformation” value [4] was “Compound NOT metabolized”, the “Bacterial Biotransformation” value [5] was “Compound NOT metabolized” and the “Bacterial Biotransformation” value [6] was “Compound metabolized”. The “Bacterial Biotransformation” value [7] was “Compound metabolized”, the “Bacterial Biotransformation” value [8] was “Compound NOT metabolized” and the “Bacterial Biotransformation” value [9] was “Compound NOT metabolized”. The “Bacterial Biotransformation” value [10] was “Compound NOT metabolized”, the “Bacterial Biotransformation” value [11] was “Compound NOT metabolized” and the “Bacterial Biotransformation” value [12] was “Compound metabolized”. The “Bacterial Biotransformation” value [13] was “Compound NOT metabolized”, the “Bacterial Biotransformation” value [14] was “Compound NOT metabolized” and the “Bacterial Biotransformation” value [15] was “Compound NOT metabolized”. The “Bacterial Biotransformation” value [16] was “Compound NOT metabolized”, the “Bacterial Biotransformation” value [17] was “Compound NOT metabolized” and the “Bacterial Biotransformation” value [18] was “Compound NOT metabolized”. The “Bacterial Biotransformation” value [19] was “Compound NOT metabolized”, the “Bacterial Biotransformation” value [20] was “Compound metabolized” and the “Bacterial Biotransformation” value [21] was “Compound metabolized”. For the same molecule, the “Bacterial Biotransformation” value [22] was “Compound metabolized”, the “Bacterial Biotransformation” value [23] was “Compound NOT metabolized” and the “Bacterial Biotransformation” value [24] was “Compound NOT metabolized”. The “Bacterial Biotransformation” value [25] was “Compound metabolized”, the “Bacterial Biotransformation” value [26] was “Compound metabolized” and the “Bacterial Biotransformation” value [27] was “Compound metabolized”. For the same molecule, the “Bacterial Biotransformation” value [28] was “Compound NOT metabolized”, the “Bacterial Biotransformation” value [29] was “Compound metabolized” and the “Bacterial Biotransformation” value [30] was “Compound metabolized”.
